Results as given in ChEMBL document CHEMBL4706617, “Pyrimido[1,2-b]indazole derivatives: Selective inhibitors of human monoamine oxidase B with neuroprotective activity” (Eur J Med Chem, 2021).
Calls of active or inactive are those of the source. The rule behind the calls is not given here.

Tests used:
[1] = target: T1, Amine oxidase [flavin-containing] B (Homo sapiens, UniProt P27338); experiment: biochemical; type: cell-based, BTI-TN-5B1-4
T1 sequence (P27338 whole entry): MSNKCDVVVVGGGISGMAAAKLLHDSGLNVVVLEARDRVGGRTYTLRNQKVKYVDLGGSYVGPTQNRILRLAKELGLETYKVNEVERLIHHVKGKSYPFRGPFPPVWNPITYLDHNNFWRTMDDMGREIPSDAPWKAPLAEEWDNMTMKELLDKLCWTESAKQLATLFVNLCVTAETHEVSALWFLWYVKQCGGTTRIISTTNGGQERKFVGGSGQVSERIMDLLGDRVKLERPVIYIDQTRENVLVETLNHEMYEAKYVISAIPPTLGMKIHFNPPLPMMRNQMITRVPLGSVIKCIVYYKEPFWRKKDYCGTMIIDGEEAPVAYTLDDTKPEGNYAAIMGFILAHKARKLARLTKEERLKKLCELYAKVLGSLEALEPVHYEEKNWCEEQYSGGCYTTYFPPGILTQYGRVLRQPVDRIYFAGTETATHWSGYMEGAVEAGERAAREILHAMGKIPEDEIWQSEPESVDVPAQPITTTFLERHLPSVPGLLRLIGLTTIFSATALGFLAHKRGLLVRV
Description: Inhibition of recombinant human MAO-B expressed in baculovirus infected BTI-TN-5B1-4 insect cells using p-tyramine as substrate preincubated for 15 mins followed by substrate addition and measured over 20 mins by horse-radish peroxidase/Amplex Red coupled fluorimetric analysis

[2] = target: T2, Amine oxidase [flavin-containing] A (Homo sapiens, UniProt P21397); experiment: Inhibition of recombinant human MAO-A expressed in baculovirus infected BTI-TN-5B1-4 insect cells using p-tyramine as substrate preincubated for 15 mins followed by substrate addition and measured over 20 mins by horse-radish peroxidase/Amplex Red coupled fluorimetric analysis
T2 sequence (P21397 whole entry): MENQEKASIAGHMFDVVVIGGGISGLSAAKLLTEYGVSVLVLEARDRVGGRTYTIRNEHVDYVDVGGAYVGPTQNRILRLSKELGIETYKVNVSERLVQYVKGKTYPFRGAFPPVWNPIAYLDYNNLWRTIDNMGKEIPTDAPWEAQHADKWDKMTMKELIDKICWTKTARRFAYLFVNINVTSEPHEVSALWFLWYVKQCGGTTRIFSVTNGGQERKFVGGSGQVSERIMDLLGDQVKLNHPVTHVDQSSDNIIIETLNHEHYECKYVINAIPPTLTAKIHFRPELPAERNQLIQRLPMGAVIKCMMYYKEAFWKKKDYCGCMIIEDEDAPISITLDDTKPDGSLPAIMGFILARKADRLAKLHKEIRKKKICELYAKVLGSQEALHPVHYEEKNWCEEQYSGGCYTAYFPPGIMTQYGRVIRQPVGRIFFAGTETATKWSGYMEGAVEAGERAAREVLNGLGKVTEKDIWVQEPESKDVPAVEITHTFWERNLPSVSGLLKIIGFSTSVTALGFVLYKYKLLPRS

[3] = test system: SH-SY5Y; experiment: Cytotoxicity against human SH-SY5Y cells assessed as reduction in metabolic activity up to 20 uM incubated for 24 hrs by MTS assay; type: ADME, cell-based
[4] = target: T1, Amine oxidase [flavin-containing] B; experiment: Competitive inhibition of recombinant human MAO-B expressed in baculovirus infected BTI-TN-5B1-4 insect cells using varying level of p-tyramine as substrate by Lineweaver-Burk plot analysis
[5] = Cytotoxicity against human SH-SY5Y cells assessed as metabolic activity up to 100 uM incubated for 24 hrs by MTS assay relative to control; type: ADME, cell-based; details: read-out: Activity
[6] = test system: SH-SY5Y; experiment: Cytotoxicity against human SH-SY5Y cells assessed as reduction in metabolic activity at 50 to 100 uM incubated for 24 hrs by MTS assay; type: ADME, cell-based; details: dose 50-100 µM
[7] = test system: SH-SY5Y; experiment: Neuroprotective activity against 6-OHDA-induced cell death in human SH-SY5Y cells at 1 uM preincubated for 1 hr followed by 6-OHDA stimulation for 24 hrs by 7AAD staining based flow cytometric analysis; type: functional; details: time 25.0 hrs

Row | SMILES | IC50 [1] [µM] | IC50 [2] [µM] | Activity [3] | Ki [4] [µM] | viability at 24 h [5] [%] | Activity [6] | Activity [7]
1 | Brc1cnc2c3nccnc3nn2c1 | > 100 | > 100 | – | – | – | – | –
2 | Fc1cccc2nn3cc(Br)cnc3c12 | > 100 | > 100 | – | – | – | – | –
3 | Fc1ccc(-c2cnc3c4cccnc4nn3c2)cn1 | > 100 | > 100 | – | – | – | – | –
4 | Brc1ccc2nn3cc(Br)cnc3c2c1 | > 100 | > 100 | – | – | – | – | –
5 | FC(F)(F)c1ccc2c(c1)nn1cc(Br)cnc21 | 1.17 | > 100 | – | – | – | – | –
6 | CSc1ccc(-c2cnc3c4ccccc4nn3c2)cc1 | 0.065 | > 100 | Non-Toxic | 0.0247 | > 85 | – | –
7 | CS(=O)(=O)c1ccc(-c2cnc3c4cccnc4nn3c2)cc1 | 5.7 | > 100 | – | – | – | – | –
8 | Brc1ccc2c(c1)nn1cc(Br)cnc21 | > 100 | > 100 | – | – | – | – | –
9 | FC(F)(F)c1cccc(-c2cnc3c4cccnc4nn3c2)c1 | 1.02 | > 100 | – | – | – | – | –
10 | COc1cccc(-c2cnc3c4cccnc4nn3c2)c1 | 0.397 | > 100 | – | – | – | – | –
11 | Brc1cnc2c3ncccc3nn2c1 | > 100 | > 100 | – | – | – | – | –
12 | COc1ccc2c3c([nH]c2c1)C(C)=NCC3 [HARMALINE] | > 100 | 0.0329 | – | – | – | – | –
13 | c1csc(-c2cnc3c4cccnc4nn3c2)c1 | 4.48 | > 100 | – | – | – | – | –
14 | COc1ccc(-c2cnc3c4c(Cl)cccc4nn3c2)cc1 | 0.132 | > 100 | – | – | – | Toxic | –
15 | c1cnc2c(c1)nn1cc(-c3ccsc3)cnc21 | 14.8 | > 100 | – | – | – | – | –
16 | COc1ccccc1-c1cnc2c3cccnc3nn2c1 | 3.79 | > 100 | – | – | – | – | –

Row | SMILES | IC50 [1] [µM] | IC50 [2] [µM] | Activity [3] | Ki [4] [µM] | viability at 24 h [5] [%] | Activity [6] | Activity [7]
17 | c1ccc(-c2cnc3c4ncccc4nn3c2)cc1 | 88.3 | > 100 | – | – | – | – | –
18 | CCOC(=O)c1ccc(-c2cnc3c4cccnc4nn3c2)cc1 | 0.822 | > 100 | – | – | – | – | –
19 | C(=C\c1cnc2c3cccnc3nn2c1)/c1ccccc1 | 0.837 | > 100 | – | – | – | – | –
20 | Clc1cccc2nn3cc(Br)cnc3c12 | > 100 | > 100 | – | – | – | – | –
21 | CCOC(=O)c1ccccc1-c1cnc2c3nccnc3nn2c1 | > 100 | > 100 | – | – | – | – | –
22 | Brc1cnc2c3cccnc3nn2c1 | > 100 | > 100 | – | – | – | – | –
23 | Brc1cnc2c3ccccc3nn2c1 | > 100 | > 100 | – | – | – | – | –
24 | O=[N+]([O-])c1ccc2nn3cc(Br)cnc3c2c1 | > 100 | > 100 | – | – | – | – | –
25 | COc1ccc(-c2cnc3c4ccccc4nn3c2)cc1 | 0.215 | > 100 | Non-Toxic | – | – | Toxic | –
26 | Fc1ncccc1-c1cnc2c3ccccc3nn2c1 | 0.648 | 21.1 | – | – | – | – | –
27 | COc1ccc(-c2cnc3c4cccnc4nn3c2)cc1 | 0.818 | > 100 | – | – | – | – | –
28 | CC(=O)c1ccc(-c2cnc3c4cccnc4nn3c2)cc1 | 0.13 | > 100 | Non-Toxic | 0.0765 | > 85 | – | Active
29 | COc1ccc(-c2cnc3c4c(F)cccc4nn3c2)cc1 | 0.062 | > 100 | – | 0.0337 | > 85 | – | –
30 | COc1ccc(-c2cnc3c4ncccc4nn3c2)cc1 | 0.236 | > 100 | Non-Toxic | 0.107 | – | Toxic | Active
31 | COc1ccc(-c2cnc3c4nccnc4nn3c2)cc1 | 1.25 | > 100 | – | – | – | – | –
